Positions count from the first letter of the chain named. Blank lines part the entries; values can stand above or below the compound they belong to.
What was measured:
[1] = target: T1, URAT1WT (Homo sapiens, UniProt Q96S37); experiment: Anion preloading 14C-urate uptake assay, WT URAT1; format: cell-based; settings: Fig. 4e, f, NaCl uptake buffer
T1 construct: expressed in transfected cells; host or cells: HEK293 cells (ATCC, CRL-3216), transient transfection with Lipofectamine 3000
T1 sequence (Q96S37 1-553): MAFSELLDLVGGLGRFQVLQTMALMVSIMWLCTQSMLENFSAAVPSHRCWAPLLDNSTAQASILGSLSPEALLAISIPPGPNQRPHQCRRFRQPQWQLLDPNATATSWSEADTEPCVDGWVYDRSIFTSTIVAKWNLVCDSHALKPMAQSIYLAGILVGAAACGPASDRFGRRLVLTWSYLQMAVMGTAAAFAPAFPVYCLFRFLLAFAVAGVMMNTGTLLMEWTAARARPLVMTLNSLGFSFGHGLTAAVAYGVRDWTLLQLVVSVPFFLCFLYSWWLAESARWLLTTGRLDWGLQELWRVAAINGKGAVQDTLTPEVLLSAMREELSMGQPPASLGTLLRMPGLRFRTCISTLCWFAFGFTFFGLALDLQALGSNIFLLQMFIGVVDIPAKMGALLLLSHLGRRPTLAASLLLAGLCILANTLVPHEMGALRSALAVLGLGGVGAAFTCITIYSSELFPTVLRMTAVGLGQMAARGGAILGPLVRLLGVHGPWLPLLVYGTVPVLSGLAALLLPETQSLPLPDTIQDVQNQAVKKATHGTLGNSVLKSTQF

[2] = target: T2, URAT1 Q473E (Homo sapiens, UniProt Q96S37, Q473E); experiment: Anion preloading 14C-urate uptake assay, URAT1 Q473E; format: cell-based; settings: Fig. 4e, f; Site 1 mutant
T2 construct: expressed in transfected cells; host or cells: HEK293 cells (ATCC, CRL-3216), transient transfection
T2 sequence (Q96S37 1-553 Q473E): T1 sequence (Q96S37 1-553) with Q473E

[3] = target: T3, URAT1EM (Homo sapiens, UniProt Q96S37, A280P/A304R/A323S/A335R/D313K/DEL311-312/DEL60-62/G295A/G309E/G331A/G338L/G65T/I63V/INS307H/L287I/L292P/L321M/L328V/L337V/L341F/L64S/M324V/M330S/M343V/P317I/P333E/Q332K/R291K/R301K/R325K/R342C/S329A/T288I/T289K/T314N/T339D/W294Q/W300R); experiment: 14C-urate uptake in HEK293 cells expressing URAT1EM (cryo-EM construct); format: cell-based; settings: read-out: IC50 for URAT1EM
T3 construct: human URAT1 (residues 3–553), a (GGGGS)3 linker, and C-terminal DARPinoff7; expressed in transfected cells; host or cells: HEK293 cells (ATCC, CRL-3216), transient transfection
T3 sequence (Q96S37 with tags, fused parts or gaps DEL60-62/I63V/L64S/G65T/A280P/L287I/T288I/T289K/R291K/L292P/W294Q/G295A/W300R/R301K/A304R/INS307H/G309E/DEL311-312/D313K/T314N/P317I/L321M/A323S/M324V/R325K/L328V/S329A/M330S/G331A/Q332K/P333E/A335R/L337V/G338L/T339D/L341F/R342C/M343V): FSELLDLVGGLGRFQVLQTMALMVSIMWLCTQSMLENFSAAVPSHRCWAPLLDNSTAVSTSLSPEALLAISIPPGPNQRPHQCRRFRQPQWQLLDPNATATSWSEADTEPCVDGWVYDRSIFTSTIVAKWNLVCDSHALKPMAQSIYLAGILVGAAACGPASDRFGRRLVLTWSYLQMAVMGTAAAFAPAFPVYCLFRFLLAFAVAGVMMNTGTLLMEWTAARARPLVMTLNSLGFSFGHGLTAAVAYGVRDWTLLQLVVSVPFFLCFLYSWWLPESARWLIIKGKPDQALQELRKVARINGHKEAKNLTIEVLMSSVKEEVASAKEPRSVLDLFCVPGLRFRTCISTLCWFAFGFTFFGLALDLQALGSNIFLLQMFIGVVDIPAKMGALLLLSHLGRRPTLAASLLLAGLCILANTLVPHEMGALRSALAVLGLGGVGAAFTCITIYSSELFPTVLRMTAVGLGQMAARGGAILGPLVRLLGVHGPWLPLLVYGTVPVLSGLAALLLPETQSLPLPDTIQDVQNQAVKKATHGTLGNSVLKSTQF
Procedure: (§1) Data are shown as mean ± SD; n = 3 biological replicates. In a, b, uptake buffer: 20 mM HEPES pH 7.4, 125 mM sodium gluconate, 4.8 mM potassium gluconate, 1.2 mM monobasic potassium phosphate, 1.2 mM magnesium sulfate, 1.3 mM calcium gluconate, and 5.6 mM glucose. c Cryo-EM density maps of URAT1 in the apo and substrate-bound states. […] Putative lipid densities are in light cyan. d Cryo-EM density maps of URAT1 in the drug-bound states. […] Putative lipid densities are in light cyan. e Diagram of URAT1 topology. ECD, extracellular domain. f Structure of URAT1 in the apo state. g Slice view of URAT1 in the apo state, showing the central cavity and opening to the intracellular side.
(§2) Human embryonic kidney (HEK) 293 cells (ATCC, CRL-3216) were seeded onto poly(D-lysine)-coated 96-well plates at a density of 0.3 × 10^5 cells per well and cultured at 37 °C until reaching approximately 70%–80% confluence. The cells were transiently transfected with plasmids encoding the URAT1 WT or mutants using Lipofectamine 3000 (Invitrogen, L3000001), following the manufacturer’s protocol. The transfected cells were cultured at 37 °C for 12 h. Following this, 10 mM sodium butyrate was added, and the cells were further incubated at 30 °C for an additional 24 h. […]

[4] = target: T1, URAT1WT; experiment: 14C-urate uptake inhibition in HEK293 cells expressing WT URAT1; format: cell-based
Procedure: as §1, §2

[5] = target: human URAT1 tagged with MBP and DARPin, with part of the intracellular loop (residues 280-343) replaced by OAT4 residues 277-339 (human) (UniProt Q96S37); experiment: cryo-EM particle images; purified protein at the high concentration used to prepare cryo-EM grids; particles seen on the grids (Supplementary Fig. S1b)
[6] = target: T4, URAT1 (Homo sapiens, UniProt Q96S37); experiment: Effect of reducing anion gradients on 14C-urate uptake; format: cell-based; settings: 125 mM sodium phosphate in place of sodium gluconate in uptake buffer, Fig. S12b
T4 construct: expressed in transfected cells; host or cells: HEK293 cells (ATCC, CRL-3216), transient transfection with Lipofectamine 3000
T4 sequence (Q96S37 1-553): T1 sequence (Q96S37 1-553)
Procedure: Human embryonic kidney (HEK) 293 cells (ATCC, CRL-3216) were seeded onto poly(D-lysine)-coated 96-well plates at a density of 0.3 × 10^5 cells per well and cultured at 37 °C until reaching approximately 70%–80% confluence. The cells were transiently transfected with plasmids encoding the URAT1 WT or mutants using Lipofectamine 3000 (Invitrogen, L3000001), following the manufacturer’s protocol. The transfected cells were cultured at 37 °C for 12 h. Following this, 10 mM sodium butyrate was added, and the cells were further incubated at 30 °C for an additional 24 h. The medium was aspirated, and the cells were rinsed once with assay buffer (20 mM HEPES pH 7.4, 125 mM sodium gluconate, 4.8 mM potassium gluconate, 1.2 mM monobasic potassium phosphate, 1.2 mM magnesium sulfate, 1.3 mM calcium gluconate, and 5.6 mM glucose) and then incubated with 400 µM urate consisted of 80 µM ^14C-radiolabeled (50–60 mCi/mmol, 0.5 mCi/mL, American Radiolabeled Chemicals, Inc.) and 320 µM non-radiolabeled in assay buffer at 37 °C for 20 min. In some experiments, 125 mM sodium gluconate was replaced by sodium chloride, sulfate, or phosphate. […] The cells were then lysed in 0.1 M NaOH, and the lysed samples were added to scintillation liquid to measure radioactivity using a PerkinElmer Microbeta2 counter. […]

Compound: O=C(O)c1cnccn1 [Pyrazinoate, pyrazinoate]
Potentiation in urate uptake by anion preloading (fold change), WT [1]: 3.5 fold
Potentiation in urate uptake by anion preloading (fold change), Q473E [2]: 1.2 fold

IC50 [3]: 63 nM
IC50 [4]: 53 nM
Compound: CC(C)(Sc1ccncc1-c1ccc(C#N)c2ccccc12)C(=O)O [verinurad]

stoichiometry N [5]: 2
Compound: human URAT1 tagged with MBP and DARPin, with part of the intracellular loop (residues 280-343) replaced by OAT4 residues 277-339 (from UniProt Q96S37 1-279; Q9NSA0 277-339; Q96S37 344-553)

Impact on URAT1 function (14C-urate uptake) [6]: minimal impact
Compound: phosphate
